Measurements as given in patent US20240050428A1 (Cullgen (Shanghai), Inc., priority 2020, published 2024).
Like-named read-outs stand apart in the source and are kept apart here.

Key:
[1] = system: MOLM-13 cells; test: Cell viability assay (CellTiter-Glo) in MOLM-13 cells, alone or with gilteritinib; assay type: cell-based; details: MOLM-13 cells, three days, CellTiter-Glo
[2] = system: MV4;11 cells; test: Cell viability assay (CellTiter-Glo) in MV4;11 cells, alone or with gilteritinib; assay type: cell-based; details: MV4;11 cells, three days, CellTiter-Glo, read-out: MV4
[3] = Homo sapiens, MOLM-13, 72 h, compound alone (without gilteritinib), read-out: MOLM-13 IC50
[4] = Homo sapiens, MOLM-13, 72 h, with gilteritinib 20 nM, read-out: MOLM-13 IC50 gilteritinib
[5] = Homo sapiens, MV4-11, 72 h, compound alone (without gilteritinib), 11 IC50
[6] = Homo sapiens, MV4-11, 72 h, with gilteritinib 10 nM, 11 IC50 gilteritinib
[7] = Homo sapiens, MOLM-13, 72 h, compound with gilteritinib 20 nM, read-out: MOLM-13 IC50 gilteritinib
[8] = Homo sapiens, MV4-11, 72 h, compound with gilteritinib 10 nM, 11 IC50 gilteritinib

Row | SMILES | IC50 [1, 3] | IC50 [1, 4] | IC50 [2, 5] | IC50 [2, 6] | IC50 [1, 7] | IC50 [2, 8] | IC50 ([1]; compound alone (without gilteritinib), read-out: MOLM-13 IC50) | IC50 ([2]; compound alone (without gilteritinib), 11 IC50)
1 | C[C@@H]1CN(c2ccc3ncc(-c4cnn([C@H]5C[C@H](CCCNc6ccc7c(c6)C(=O)N(C6CCC(=O)NC6=O)C7=O)C5)c4)nc3c2)C[C@H](C)N1C (stereo partly drawn) [GS-408, 2-(2,6-dioxopiperidin-3-yl)-5-((3-(trans-3-(4-(7-((3S,5R)-3,4,5-trimethylpiperazin-1-yl)quinoxalin-2-yl)-1H-pyrazol-1-yl)cyclobutyl)propyl)amino)isoindoline-1,3-dione] | 100 to 1000 nM | 10 to 100 nM | 100 to 1000 nM | 10 to 100 nM |  |  |  | 
2 | CN1C2CCC1CN(c1ccc3ncc(-c4cnn([C@H]5C[C@H](CCCNc6ccc7c(c6)C(=O)N(C6CCC(=O)NC6=O)C7=O)C5)c4)nc3c1)C2 (stereo partly drawn) [GS-409, 2-(2,6-dioxopiperidin-3-yl)-5-((3-(trans-3-(4-(7-(8-methyl-3,8-diazabicyclo[3.2.1]octan-3-yl)quinoxalin-2-yl)-1H-pyrazol-1-yl)cyclobutyl)propyl)amino)isoindoline-1,3-dione] | 10 to 100 nM | < 10 nM | 10 to 100 nM | 10 to 100 nM |  |  |  | 
3 | O=C1CCC(N2C(=O)c3ccc(NCCC[C@H]4C[C@H](n5cc(-c6cnc7ccc(N8C[C@H]9C[C@@H]8CO9)cc7n6)cn5)C4)cc3C2=O)C(=O)N1 (stereo partly drawn) [GS-410, 5-((3-(trans-3-(4-(7-((1R,4R)-2-oxa-5-azabicyclo[2.2.1]heptan-5-yl)quinoxalin-2-yl)-1H-pyrazol-1-yl)cyclobutyl)propyl)amino)-2-(2,6-dioxopiperidin-3-yl)isoindoline-1,3-dione] | 10 to 100 nM | < 10 nM | 10 to 100 nM | < 10 nM |  |  |  | 
4 | CN1C[C@H]2C[C@@H]1CN2c1ccc2ncc(-c3cnn([C@H]4C[C@H](CCCNc5ccc6c(c5)C(=O)N(C5CCC(=O)NC5=O)C6=O)C4)c3)nc2c1 (stereo partly drawn) [GS-411, 2-(2,6-dioxopiperidin-3-yl)-5-((3-(trans-3-(4-(7-((1R,4R)-5-methyl-2,5-diazabicyclo[2.2.1]heptan-2-yl)quinoxalin-2-yl)-1H-pyrazol-1-yl)cyclobutyl)propyl)amino)isoindoline-1,3-dione] | > 1000 nM | < 10 nM | 10 to 100 nM | < 10 nM |  |  |  | 
5 | CN1CCN(c2ccc3nc(-c4cnn([C@H]5C[C@@H](CCCNc6ccc7c(c6)C(=O)N(C6CCC(=O)NC6=O)C7=O)C5)c4)cnc3c2)CC1 (stereo partly drawn) [GS-412, 2-(2,6-dioxopiperidin-3-yl)-5-((3-(cis-3-(4-(6-(4-methylpiperazin-1-yl)quinoxalin-2-yl)-1H-pyrazol-1-yl)cyclobutyl)propyl)amino)isoindoline-1,3-dione] | 100 to 1000 nM |  | 100 to 1000 nM |  | 10 to 100 nM | 10 to 100 nM |  | 
6 | CN1CCN(c2cccc(-c3cnn([C@H]4C[C@H](CCCNc5ccc6c(c5)C(=O)N(C5CCC(=O)NC5=O)C6=O)C4)c3)n2)CC1 (stereo partly drawn) [GS-413, 2-(2,6-dioxopiperidin-3-yl)-5-((3-(trans-3-(4-(6-(4-methylpiperazin-1-yl)pyridin-2-yl)-1H-pyrazol-1-yl)cyclobutyl)propyl)amino)isoindoline-1,3-dione] |  |  |  |  | 10 to 100 nM | 100 to 1000 nM | > 1000 nM | 100 to 1000 nM
7 | CN1CCN(c2ccc3ncc(-c4cnn([C@H]5C[C@H](CCCNc6ccc7c(c6)C(=O)N(C6CCC(=O)NC6=O)C7=O)C5)c4)nc3c2)CC12CC2 (stereo partly drawn) [GS-414, 2-(2,6-dioxopiperidin-3-yl)-5-((3-(trans-3-(4-(7-(4-methyl-4,7-diazaspiro[2.5]octan-7-yl)quinoxalin-2-yl)-1H-pyrazol-1-yl)cyclobutyl)propyl)amino)isoindoline-1,3-dione] | 100 to 1000 nM |  | 100 to 1000 nM |  | 10 to 100 nM | 10 to 100 nM |  | 
8 | O=C1CCC(N2C(=O)c3ccc(NCCC[C@H]4C[C@H](n5cc(-c6cnc7ccc(N8C[C@H]9C[C@@H]8CN9)cc7n6)cn5)C4)cc3C2=O)C(=O)N1 (stereo partly drawn) [GS-415, 5-((3-(trans-3-(4-(7-((1R,4R)-2,5-diazabicyclo[2.2.1]heptan-2-yl)quinoxalin-2-yl)-1H-pyrazol-1-yl)cyclobutyl)propyl)amino)-2-(2,6-dioxopiperidin-3-yl)isoindoline-1,3-dione] | > 1000 nM |  | > 1000 nM |  | > 1000 nM | > 1000 nM |  | 
9 | CN1CCN(c2cccc(-c3cnn([C@H]4C[C@H](CNc5ccc6c(c5)C(=O)N(C5CCC(=O)NC5=O)C6=O)C4)c3)n2)CC1 (stereo partly drawn) [GS-416, 2-(2,6-dioxopiperidin-3-yl)-5-(((trans-3-(4-(6-(4-methylpiperazin-1-yl)pyridin-2-yl)-1H-pyrazol-1-yl)cyclobutyl)methyl)amino)isoindoline-1,3-dione] | > 1000 nM |  | > 1000 nM |  | 100 to 1000 nM | > 1000 nM |  | 
10 | Cc1nn([C@H]2C[C@H](CCCNc3ccc4c(c3)C(=O)N(C3CCC(=O)NC3=O)C4=O)C2)cc1-c1cnc2c(N3CCN(C)CC3)cccc2n1 (stereo partly drawn) [GS-417, 2-(2,6-dioxopiperidin-3-yl)-5-((3-(trans-3-(3-methyl-4-(5-(4-methylpiperazin-1-yl)quinoxalin-2-yl)-1H-pyrazol-1-yl)cyclobutyl)propyl)amino)isoindoline-1,3-dione] | 100 to 1000 nM |  | 100 to 1000 nM |  | 10 to 100 nM | 10 to 100 nM |  | 
11 | Cc1nn([C@H]2C[C@H](CCCNc3ccc4c(c3)C(=O)N(C3CCC(=O)NC3=O)C4=O)C2)cc1-c1cnc2c(C3CCN(C)CC3)cccc2n1 (stereo partly drawn) [GS-418, 2-(2,6-dioxopiperidin-3-yl)-5-((3-(trans-3-(3-methyl-4-(5-(1-methylpiperidin-4-yl)quinoxalin-2-yl)-1H-pyrazol-1-yl)cyclobutyl)propyl)amino)isoindoline-1,3-dione] | 10 to 100 nM |  | 10 to 100 nM |  | < 10 nM | < 10 nM |  | 
12 | CN1CCC(c2ccc3nc(-c4cnn([C@H]5C[C@H](CCCNc6ccc7c(c6)C(=O)N(C6CCC(=O)NC6=O)C7=O)C5)c4)cnc3c2)CC1 (stereo partly drawn) [GS-419, 2-(2,6-dioxopiperidin-3-yl)-5-((3-(trans-3-(4-(6-(1-methylpiperidin-4-yl)quinoxalin-2-yl)-1H-pyrazol-1-yl)cyclobutyl)propyl)amino)isoindoline-1,3-dione] | 10 to 100 nM |  | 10 to 100 nM |  | < 10 nM | 10 to 100 nM |  | 
13 | O=C1CCC(N2C(=O)c3ccc(NCCC[C@H]4C[C@H](n5cc(-c6cnc7cc(C8CCOCC8)ccc7n6)cn5)C4)cc3C2=O)C(=O)N1 (stereo partly drawn) [GS-420, 2-(2,6-dioxopiperidin-3-yl)-5-((3-(trans-3-(4-(6-(tetrahydro-2H-pyran-4-yl)quinoxalin-2-yl)-1H-pyrazol-1-yl)cyclobutyl)propyl)amino)isoindoline-1,3-dione] | 100 to 1000 nM |  | 100 to 1000 nM |  | 10 to 100 nM | 10 to 100 nM |  | 
14 | O=C1CCC(N2C(=O)c3ccc(NCCC[C@H]4C[C@H](n5cc(-c6cnc7cc(C8CCNCC8)ccc7n6)cn5)C4)cc3C2=O)C(=O)N1 (stereo partly drawn) [GS-421, 2-(2,6-dioxopiperidin-3-yl)-5-((3-(trans-3-(4-(6-(piperidin-4-yl)quinoxalin-2-yl)-1H-pyrazol-1-yl)cyclobutyl)propyl)amino)isoindoline-1,3-dione] | 10 to 100 nM |  | 10 to 100 nM |  | < 10 nM | < 10 nM |  | 
